We go through one molecule from publication PMC3689833, “Neurochemical Changes in the Mouse Hippocampus Underlying the Antidepressant Effect of Genetic Deletion of P2X7 Receptors” (PLoS ONE, 2013).

For this test, the system named is acute hippocampal slices. In words: [3H]Glutamate and endogenous glutamate release from acute hippocampal slices. Format: cell-based, mouse. The following applies: P2rx7−/− slices, ATP 10 mM, antagonist 100 nM 15 min before ATP. The protocol:
The [^3H]Glu release experiments were conducted using the method described in our previous papers. Briefly, the mice were anaesthetized under light CO2 inhalation, and subsequently decapitated. The hippocampus was dissected from each mouse in ice-cold Krebs solution saturated with 95% O2 and 5% CO2, sectioned (400-µm-thick slices) using a McIlwain tissue chopper and incubated in 1 ml of modified Krebs solution (113 mM NaCl, 4.7 mM KCl, 2.5 mM CaCl2, 1.2 mM KH2PO4, 1.2 mM MgSO4, 25.0 mM NaHCO3, and 11.5 mM glucose), pH 7.4, in the presence of 5 µCi/ml [^3H]glutamic acid ([^3H]Glu, 9.8×10^−8 M, specific activity 51 Ci/mmol; Perkin Elmer) for 45 min. The medium was bubbled with 95% O2 and 5% CO2 and maintained at 32°C. After loading, the slices were continuously superfused with 95% O2 and 5% CO2-saturated modified Krebs solution (flow rate: 0.7 ml/min).
Subsequently, the perfused samples were collected over a 3-min period and measured for tritium content. At 6 min after the start of the collection, the slices were subjected to a 6-min perfusion of the agonist (ATP) at various concentrations (1, 3, 6 and 10 mM) and then changed to normal Krebs solution until the end of the collection period. In some experiments, the P2X1 receptor antagonist, NF449 (100 nM), or the selective P2rx7 antagonist Brilliant blue G (100 nM) was applied to the perfusion solution at 15 min before the beginning of the ATP perfusion.
The radioactivity released from the preparations was measured using a Packard 1900 Tricarb liquid scintillation spectrometer, using Ultima Gold Scintillation cocktail. The release of tritium was expressed as a percentage of the amount of radioactivity in the tissue at the sample collection time (fractional release). The tritium uptake in the tissue was determined as the sum of release+the tissue content after the experiment and expressed in Bq/g. For the evaluation of the basal tritium outflow the fractional release measured in four consecutive 3 min samples under drug free conditions were taken into account. The ATP-induced [^3H]Glu efflux calculated as the net release in response to the respective stimulus by subtracting the release before the stimulation from the values measured after stimulation. Selected samples collected under resting conditions and during the peak of the ATP-evoked response were subjected to further HPLC analyses.
The separation of pre-column dansylated amino acids was performed using a gradient elution-working mode at ambient temperature. The mobile phase A consisted of 5/95 (v/v) 78/22 acetonitrile/methanol in 15 mM ammonium formate buffer, and the mobile phase B was composed of 90/10 (v/v 78/22) acetonitrile/methanol in ammonium formate buffer, pH 3.7. The mobile phase B increased linearly (at 0.11 min to 50% 17 min to 72% and 26 min to 100%, followed by a final run to 54 min), the flow rate was 0.7 ml/min. The analytical and the trap column were equilibrated for 10 min, and enrichment and clean-up procedures were performed. The dansylated derivatives were detected using an absorbance detector (Agilent 1100) at a 319 nm wavelength. The retention time of the dansylated Glu was 11.4 min. Pre-column derivatization was performed by mixing 50 µl of dansyl chloride prepared by dissolving 5 mg 5-(dimethylamino)naphthalene-1-sulfonyl chloride in acetonitrile daily and adding 50 µl of 2 M sodium carbonate, which contained norvaline (20 µM) as an internal standard in 25 µl of sample. After a 10-min reaction time at 60°C, the mixture was acidified using 25 µl of 6 M formic acid and injected onto the “trap-column”.

On to `CCOc1ccc(Nc2ccc(/C(=C3C=C/C(=[N+](/CC)Cc4cccc(S(=O)(=O)[O-])c4)C=C/3C)c3ccc(N(CC)Cc4cccc(S(=O)(=O)O)c4)cc3C)cc2)cc1` [BBG, Brilliant blue G], for which the “residual ATP-evoked [3H]Glu efflux in presence of antagonist” value came to 0.56±0.25%.
